Reference: ChEMBL document CHEMBL5724806, “Unraveling interindividual differences and functional consequences of gut microbial metabolism of immunosuppressants” (2024)

Columns and labels:
Type in all cases: ADME
[1] = The drug is tested on the gut metagenome community of P-01 with ENA study accession number: PRJEB31790 for biotransformation under microaerobic condition. The drug concentrations were measured over 7 timepoints collected between 0 and 12 hours of incubation by liquid-chromatography-coupled mass spectrometry (LC–MS); parameters: dose 5 uM, timepoint 0, 0.75, 1.5, 3, 6, 9, 12 hours; details: 5 µM
[2] = The drug is tested on Streptococcus mitis strain: DSM12643 for biotransformation under microaerobic condition. The drug concentrations were measured over 6 timepoints collected between 0 and 12 hours of incubation by liquid-chromatography-coupled mass spectrometry (LC–MS); parameters: dose 5 uM, timepoint 0, 1.5, 3, 6, 9, 12 hours; details: 5 µM
[3] = The drug is tested on the gut metagenome community of A-01 with ENA study accession number: PRJEB31790 for biotransformation under anaerobic condition. The drug concentrations were measured over 7 timepoints collected between 0 and 12 hours of incubation by liquid-chromatography-coupled mass spectrometry (LC–MS); parameters: dose 5 uM, timepoint 0, 0.75, 1.5, 3, 6, 9, 12 hours; details: 5 µM
[4] = The drug is tested on Collinsella aerofaciens strain: DSM3979 for biotransformation under anaerobic condition. The drug concentrations were measured over 6 timepoints collected between 0 and 12 hours of incubation by liquid-chromatography-coupled mass spectrometry (LC–MS); parameters: dose 5 uM, timepoint 0, 1.5, 3, 6, 9, 12 hours; details: 5 µM
[5] = The drug is tested on the gut metagenome community of A-03 with ENA study accession number: PRJEB31790 for biotransformation under anaerobic condition. The drug concentrations were measured over 7 timepoints collected between 0 and 12 hours of incubation by liquid-chromatography-coupled mass spectrometry (LC–MS); parameters: dose 5 uM, timepoint 0, 0.75, 1.5, 3, 6, 9, 12 hours; details: 5 µM
[6] = The drug is tested on Actinomyces graevenitzii strain: DSM15540 for biotransformation under microaerobic condition. The drug concentrations were measured over 6 timepoints collected between 0 and 12 hours of incubation by liquid-chromatography-coupled mass spectrometry (LC–MS); parameters: dose 5 uM, timepoint 0, 1.5, 3, 6, 9, 12 hours; details: 5 µM
[7] = The drug is tested on Actinomyces naeslundi strain: DSM43013 for biotransformation under microaerobic condition. The drug concentrations were measured over 6 timepoints collected between 0 and 12 hours of incubation by liquid-chromatography-coupled mass spectrometry (LC–MS); parameters: dose 5 uM, timepoint 0, 1.5, 3, 6, 9, 12 hours; details: actinomyces naeslundii, 5 µM
[8] = The drug is tested on the gut metagenome community of P-03 with ENA study accession number: PRJEB31790 for biotransformation under microaerobic condition. The drug concentrations were measured over 7 timepoints collected between 0 and 12 hours of incubation by liquid-chromatography-coupled mass spectrometry (LC–MS); parameters: dose 5 uM, timepoint 0, 0.75, 1.5, 3, 6, 9, 12 hours; details: 5 µM
[9] = The drug is tested on Bifidobacterium adolescentis strain: DSM20083 for biotransformation under anaerobic condition. The drug concentrations were measured over 6 timepoints collected between 0 and 12 hours of incubation by liquid-chromatography-coupled mass spectrometry (LC–MS); parameters: dose 5 uM, timepoint 0, 1.5, 3, 6, 9, 12 hours; details: 5 µM
[10] = The drug is tested on Lactobacillus paracasei strain: ATCC27092 for biotransformation under anaerobic condition. The drug concentrations were measured over 6 timepoints collected between 0 and 12 hours of incubation by liquid-chromatography-coupled mass spectrometry (LC–MS); parameters: dose 5 uM, timepoint 0, 1.5, 3, 6, 9, 12 hours; details: lacticaseibacillus paracasei, 5 µM
[11] = The drug is tested on Ruminococcus gnavus strain: ATCC29149 for biotransformation under anaerobic condition. The drug concentrations were measured over 6 timepoints collected between 0 and 12 hours of incubation by liquid-chromatography-coupled mass spectrometry (LC–MS); parameters: dose 5 uM, timepoint 0, 1.5, 3, 6, 9, 12 hours; details: mediterraneibacter gnavus, 5 µM
[12] = The drug is tested on Lactobacillus gasseri strain: DSM20243 for biotransformation under microaerobic condition. The drug concentrations were measured over 6 timepoints collected between 0 and 12 hours of incubation by liquid-chromatography-coupled mass spectrometry (LC–MS); parameters: dose 5 uM, timepoint 0, 1.5, 3, 6, 9, 12 hours; details: 5 µM
[13] = The drug is tested on Streptococcus mitis strain: DSM12643 for biotransformation under anaerobic condition. The drug concentrations were measured over 6 timepoints collected between 0 and 12 hours of incubation by liquid-chromatography-coupled mass spectrometry (LC–MS); parameters: dose 5 uM, timepoint 0, 1.5, 3, 6, 9, 12 hours; details: 5 µM
[14] = The drug is tested on the gut metagenome community of T-01 with ENA study accession number: PRJEB31790 for biotransformation under anaerobic condition. The drug concentrations were measured over 7 timepoints collected between 0 and 12 hours of incubation by liquid-chromatography-coupled mass spectrometry (LC–MS); parameters: dose 5 uM, timepoint 0, 0.75, 1.5, 3, 6, 9, 12 hours; details: 5 µM
[15] = The drug is tested on Lactobacillus fermentum strain: DSM20052 for biotransformation under microaerobic condition. The drug concentrations were measured over 6 timepoints collected between 0 and 12 hours of incubation by liquid-chromatography-coupled mass spectrometry (LC–MS); parameters: dose 5 uM, timepoint 0, 1.5, 3, 6, 9, 12 hours; details: limosilactobacillus fermentum, 5 µM
[16] = The drug is tested on Lactobacillus gasseri strain: DSM20243 for biotransformation under anaerobic condition. The drug concentrations were measured over 6 timepoints collected between 0 and 12 hours of incubation by liquid-chromatography-coupled mass spectrometry (LC–MS); parameters: dose 5 uM, timepoint 0, 1.5, 3, 6, 9, 12 hours; details: 5 µM
[17] = The drug is tested on Clostridium bolteae strain: DSM15670 for biotransformation under anaerobic condition. The drug concentrations were measured over 6 timepoints collected between 0 and 12 hours of incubation by liquid-chromatography-coupled mass spectrometry (LC–MS); parameters: dose 5 uM, timepoint 0, 1.5, 3, 6, 9, 12 hours; details: enterocloster bolteae, 5 µM
[18] = The drug is tested on Streptococcus sanguinis strain: DSM20567 for biotransformation under anaerobic condition. The drug concentrations were measured over 6 timepoints collected between 0 and 12 hours of incubation by liquid-chromatography-coupled mass spectrometry (LC–MS); parameters: dose 5 uM, timepoint 0, 1.5, 3, 6, 9, 12 hours; details: 5 µM
[19] = The drug is tested on Faecalibacterium prausnitzii strain: DSM17677 for biotransformation under anaerobic condition. The drug concentrations were measured over 6 timepoints collected between 0 and 12 hours of incubation by liquid-chromatography-coupled mass spectrometry (LC–MS); parameters: dose 5 uM, timepoint 0, 1.5, 3, 6, 9, 12 hours; details: faecalibacterium duncaniae, 5 µM
[20] = The drug is tested on Gemella morbillorum strain: DSM20572 for biotransformation under microaerobic condition. The drug concentrations were measured over 6 timepoints collected between 0 and 12 hours of incubation by liquid-chromatography-coupled mass spectrometry (LC–MS); parameters: dose 5 uM, timepoint 0, 1.5, 3, 6, 9, 12 hours; details: 5 µM
[21] = The drug is tested on Parabacteroides distasonis strain: DSM20701 for biotransformation under anaerobic condition. The drug concentrations were measured over 6 timepoints collected between 0 and 12 hours of incubation by liquid-chromatography-coupled mass spectrometry (LC–MS); parameters: dose 5 uM, timepoint 0, 1.5, 3, 6, 9, 12 hours; details: 5 µM
[22] = The drug is tested on Clostridium scindens strain: DSM5676 for biotransformation under anaerobic condition. The drug concentrations were measured over 6 timepoints collected between 0 and 12 hours of incubation by liquid-chromatography-coupled mass spectrometry (LC–MS); parameters: dose 5 uM, timepoint 0, 1.5, 3, 6, 9, 12 hours; details: 5 µM
[23] = The drug is tested on Blautia hansenii strain: DSM20583 for biotransformation under anaerobic condition. The drug concentrations were measured over 6 timepoints collected between 0 and 12 hours of incubation by liquid-chromatography-coupled mass spectrometry (LC–MS); parameters: dose 5 uM, timepoint 0, 1.5, 3, 6, 9, 12 hours; details: 5 µM
[24] = The drug is tested on Streptococcus anginosus strain: DSM20563 for biotransformation under anaerobic condition. The drug concentrations were measured over 6 timepoints collected between 0 and 12 hours of incubation by liquid-chromatography-coupled mass spectrometry (LC–MS); parameters: dose 5 uM, timepoint 0, 1.5, 3, 6, 9, 12 hours; details: 5 µM
[25] = The drug is tested on the gut metagenome community of A-10 with ENA study accession number: PRJEB31790 for biotransformation under anaerobic condition. The drug concentrations were measured over 7 timepoints collected between 0 and 12 hours of incubation by liquid-chromatography-coupled mass spectrometry (LC–MS); parameters: dose 5 uM, timepoint 0, 0.75, 1.5, 3, 6, 9, 12 hours; details: 5 µM
[26] = The drug is tested on the gut metagenome community of A-09 with ENA study accession number: PRJEB31790 for biotransformation under anaerobic condition. The drug concentrations were measured over 7 timepoints collected between 0 and 12 hours of incubation by liquid-chromatography-coupled mass spectrometry (LC–MS); parameters: dose 5 uM, timepoint 0, 0.75, 1.5, 3, 6, 9, 12 hours; details: 5 µM

| Compound | Bacterial Biotransformation [1] | Bacterial Biotransformation [2] | Bacterial Biotransformation [3] | Bacterial Biotransformation [4] | Bacterial Biotransformation [5] | Bacterial Biotransformation [6] | Bacterial Biotransformation [7] | Bacterial Biotransformation [8] | Bacterial Biotransformation [9] | Bacterial Biotransformation [10] | Bacterial Biotransformation [11] | Bacterial Biotransformation [12] | Bacterial Biotransformation [13] | Bacterial Biotransformation [14] | Bacterial Biotransformation [15] | Bacterial Biotransformation [16] | Bacterial Biotransformation [17] | Bacterial Biotransformation [18] | Bacterial Biotransformation [19] | Bacterial Biotransformation [20] | other results |
| --- | --- | --- | --- | --- | --- | --- | --- | --- | --- | --- | --- | --- | --- | --- | --- | --- | --- | --- | --- | --- | --- |
| CNC(=C[N+](=O)[O-])NCCSCc1ccc(CN(C)C)o1 [RANITIDINE] | Compound metabolized | Compound metabolized | Compound NOT metabolized | Compound NOT metabolized | Compound metabolized | Compound NOT metabolized | Compound NOT metabolized | Compound NOT metabolized | Compound NOT metabolized | Compound NOT metabolized | Compound NOT metabolized | Compound NOT metabolized | Compound NOT metabolized | Compound NOT metabolized | Compound NOT metabolized | Compound NOT metabolized | Compound NOT metabolized | Compound NOT metabolized | Compound NOT metabolized | Compound NOT metabolized | Bacterial Biotransformation [21]: Compound NOT metabolized; Bacterial Biotransformation [22]: Compound NOT metabolized; Bacterial Biotransformation [23]: Compound NOT metabolized; Bacterial Biotransformation [24]: Compound NOT metabolized; Bacterial Biotransformation [25]: Compound NOT metabolized; Bacterial Biotransformation [26]: Compound metabolized |
| CCC(C)(C)C(=O)O[C@H]1C[C@@H](C)C=C2C=C[C@H](C)[C@H](CC[C@@H]3C[C@@H](O)CC(=O)O3)[C@H]21 [SIMVASTATIN] | Compound NOT metabolized | Compound NOT metabolized | Compound NOT metabolized | Compound NOT metabolized | Compound NOT metabolized | Compound NOT metabolized | Compound NOT metabolized | Compound NOT metabolized | Compound NOT metabolized | Compound NOT metabolized | Compound NOT metabolized | Compound NOT metabolized | Compound NOT metabolized | Compound NOT metabolized | Compound NOT metabolized | Compound NOT metabolized | Compound NOT metabolized | Compound NOT metabolized | Compound NOT metabolized | Compound NOT metabolized | Bacterial Biotransformation [21]: Compound NOT metabolized; Bacterial Biotransformation [22]: Compound metabolized; Bacterial Biotransformation [23]: Compound NOT metabolized; Bacterial Biotransformation [24]: Compound NOT metabolized; Bacterial Biotransformation [25]: Compound NOT metabolized; Bacterial Biotransformation [26]: Compound NOT metabolized |
| CO[C@H]1C[C@@H]2CC[C@@H](C)[C@@](O)(O2)C(=O)C(=O)N2CCCC[C@H]2C(=O)O[C@H]([C@H](C)C[C@@H]2CC[C@@H](O)[C@H](OC)C2)CC(=O)[C@H](C)/C=C(\C)[C@@H](O)[C@@H](OC)C(=O)[C@H](C)C[C@H](C)/C=C/C=C/C=C/1C [SIROLIMUS] | Compound NOT metabolized | Compound NOT metabolized | Compound NOT metabolized | Compound metabolized | Compound metabolized | Compound metabolized | Compound NOT metabolized | Compound NOT metabolized | Compound NOT metabolized | Compound NOT metabolized | Compound NOT metabolized | Compound NOT metabolized | Compound NOT metabolized | Compound NOT metabolized | Compound NOT metabolized | Compound metabolized | Compound metabolized | Compound metabolized | Compound NOT metabolized | Compound NOT metabolized | Bacterial Biotransformation [21]: Compound metabolized; Bacterial Biotransformation [22]: Compound metabolized; Bacterial Biotransformation [23]: Compound metabolized; Bacterial Biotransformation [24]: Compound NOT metabolized; Bacterial Biotransformation [25]: Compound metabolized; Bacterial Biotransformation [26]: Compound metabolized |
